Measurements from PubChem BioAssay AID1963436 (Molecular Pharmacology Branch, DTP, NCI, 2024).

System: OVCAR-5 complex spheroid (HUVEC/MSC), viability % T/C
Test: Anticancer human tumor OVCAR-5 cell line growth inhibition [Asc];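 also: spheroids exposed to agents for 7 days before readout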;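 as to viability, T/C: 100% = DMSO vehicle-treated wells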
Conditions: for IC50: curve of first compound; for viability, T/C: stronger effect = lower value
Procedure, shortened: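 Spheroid model: tumor line + HUVEC + hMSC. Single agents and combinations; top conc. at/near clinical Cmax (10 microM if undetermined), half-log dilutions. DMSO stocks at 800-fold test concentration.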

[1] = second compound 0.1 µM, first compound 0.0316 µM
[2] = second compound 0.1 µM, first compound 0.1 µM
[3] = second compound 0.1 µM, first compound 0.316 µM
[4] = second compound 0.1 µM, first compound 1 µM
[5] = second compound 0.316 µM, first compound 0.0316 µM
[6] = second compound 0.316 µM, first compound 0.1 µM
[7] = second compound 0.316 µM, first compound 0.316 µM
[8] = second compound 0.316 µM, first compound 1 µM
[9] = second compound 1 µM, first compound 0.0316 µM
[10] = second compound 1 µM, first compound 0.1 µM
[11] = second compound 1 µM, first compound 0.316 µM
[12] = second compound 1 µM, first compound 1 µM
[13] = second compound 0.01 µM, first compound 0.0316 µM
[14] = second compound 0.01 µM, first compound 0.1 µM
[15] = second compound 0.01 µM, first compound 0.316 µM
[16] = second compound 0.01 µM, first compound 1 µM
[17] = second compound 0.01 µM, first compound 3.16 µM
[18] = second compound 0.01 µM, first compound 10 µM
[19] = second compound 0.0316 µM, first compound 0.0316 µM
[20] = second compound 0.0316 µM, first compound 0.1 µM
[21] = second compound 0.0316 µM, first compound 0.316 µM
[22] = second compound 0.0316 µM, first compound 1 µM
[23] = second compound 0.0316 µM, first compound 3.16 µM
[24] = second compound 0.0316 µM, first compound 10 µM
[25] = second compound 0.1 µM, first compound 3.16 µM
[26] = second compound 0.1 µM, first compound 10 µM
[27] = second compound 0.316 µM, first compound 3.16 µM
[28] = second compound 0.316 µM, first compound 10 µM
[29] = second compound 1 µM, first compound 3.16 µM
[30] = second compound 1 µM, first compound 10 µM

SMILES	IC50 (second compound 0.1 µM)	IC50 (second compound 0.316 µM)	IC50 (second compound 1 µM)	viability, T/C [1]	viability, T/C [2]	viability, T/C [3]	viability, T/C [4]	viability, T/C [5]	viability, T/C [6]	viability, T/C [7]	viability, T/C [8]	viability, T/C [9]	viability, T/C [10]	viability, T/C [11]	viability, T/C [12]	IC50 (second compound 0.01 µM)	IC50 (second compound 0.0316 µM)	viability, T/C [13]	viability, T/C [14]	viability, T/C [15]	other results
COc1c(OCCCN2CCOCC2)ccc2c3n(c(=NC(=O)c4cnc(N)nc4)nc12)CCN3 + Cc1c(S(C)(=O)=O)c(-c2cc(F)cc(N3CCN(c4ccc(NS(=O)(=O)c5ccc(NC(CCN6CCC(C(=O)OCCCP(=O)(O)O)CC6)CSc6ccccc6)c(S(=O)(=O)C(F)(F)F)c5)cc4)CC3)c2)c(-c2ccc(Cl)cc2)n1C(C)C	28 nM	18.1 nM	17.9 nM	46.5%	22%	14.2%	5.21%	37%	20.3%	9.08%	2.87%	35.3%	10.8%	5.94%	2.46%	–	–	–	–	–	IC50 (second compound 3.16 µM): 15.4 nM; IC50 (second compound 10 µM): 17.7 nM; viability, T/C (second compound 0.1 µM, first compound 0.00316 µM): 81.8%; viability, T/C (second compound 0.1 µM, first compound 0.01 µM): 73.3%; viability, T/C (second compound 0.316 µM, first compound 0.00316 µM): 74.7%; viability, T/C (second compound 0.316 µM, first compound 0.01 µM): 63.4%; viability, T/C (second compound 1 µM, first compound 0.00316 µM): 68.8%; viability, T/C (second compound 1 µM, first compound 0.01 µM): 65.4%; viability, T/C (second compound 3.16 µM, first compound 0.00316 µM): 64.5%; viability, T/C (second compound 3.16 µM, first compound 0.01 µM): 63.7%; viability, T/C (second compound 3.16 µM, first compound 0.0316 µM): 29.7%; viability, T/C (second compound 3.16 µM, first compound 0.1 µM): 10.2%; viability, T/C (second compound 3.16 µM, first compound 0.316 µM): 3.29%; viability, T/C (second compound 3.16 µM, first compound 1 µM): 1.07%; viability, T/C (second compound 10 µM, first compound 0.00316 µM): 86.5%; viability, T/C (second compound 10 µM, first compound 0.01 µM): 68.7%; viability, T/C (second compound 10 µM, first compound 0.0316 µM): 31.2%; viability, T/C (second compound 10 µM, first compound 0.1 µM): 7.93%; viability, T/C (second compound 10 µM, first compound 0.316 µM): 2.43%; viability, T/C (second compound 10 µM, first compound 1 µM): 1.35%
O=C(c1cc(Cc2n[nH]c(=O)c3ccccc23)ccc1F)N1CCN(C(=O)C2CC2)CC1 + CNC(C)C(=O)NC1CN(S(=O)(=O)c2cccc(S(=O)(=O)N3CCC4CCC(C(=O)NC(c5ccccc5)c5ccccc5)N4C(=O)C(NC(=O)C(C)NC)C3)c2)CCC2CCC(C(=O)NC(c3ccccc3)c3ccccc3)N2C1=O	> 10000 nM	> 10000 nM	> 10000 nM	84.9%	95.6%	77.9%	74.8%	77.4%	75.5%	80.7%	75.5%	83.5%	76.1%	88.9%	73.8%	> 10000 nM	> 10000 nM	97.3%	95.8%	87.1%	viability, T/C [16]: 96.2%; viability, T/C [17]: 80.5%; viability, T/C [18]: 70.3%; viability, T/C [19]: 81.4%; viability, T/C [20]: 88.3%; viability, T/C [21]: 81.7%; viability, T/C [22]: 74.6%; viability, T/C [23]: 77.9%; viability, T/C [24]: 67.9%; viability, T/C [25]: 75.1%; viability, T/C [26]: 55.5%; viability, T/C [27]: 67.2%; viability, T/C [28]: 62%; viability, T/C [29]: 65.3%; viability, T/C [30]: 55.9%
C=C(F)C(=O)N1CCN(c2nc(OCC3CCCN3C)nc3c2CCN(c2cccc4cccc(Cl)c24)C3)CC1CC#N (stereo not given) + CNC(C)C(=O)NC1CN(S(=O)(=O)c2cccc(S(=O)(=O)N3CCC4CCC(C(=O)NC(c5ccccc5)c5ccccc5)N4C(=O)C(NC(=O)C(C)NC)C3)c2)CCC2CCC(C(=O)NC(c3ccccc3)c3ccccc3)N2C1=O	968 nM	844 nM	740 nM	92%	84%	76.9%	51.2%	90.5%	79.2%	70.4%	50.3%	90.3%	89.5%	67%	46.5%	1320 nM	1150 nM	105%	93.5%	82.5%	viability, T/C [16]: 66.2%; viability, T/C [17]: 11.3%; viability, T/C [18]: 0.22%; viability, T/C [19]: 94.4%; viability, T/C [20]: 78.9%; viability, T/C [21]: 79%; viability, T/C [22]: 56.7%; viability, T/C [23]: 11.6%; viability, T/C [24]: 0.16%; viability, T/C [25]: 10.4%; viability, T/C [26]: 0.18%; viability, T/C [27]: 9.19%; viability, T/C [28]: 0.16%; viability, T/C [29]: 10.2%; viability, T/C [30]: 0.23%
